Test results from patent publication US20230398153A1, “A METHOD FOR EFFICIENT MICROGLIA REPLACEMENT” (The Board of Trustees of the Leland Stanford Junior …, priority 2020, published 2023).

Columns and labels:
[1] = tested on: myeloid cells of the spinal cord; assay: Microglia replacement in the spinal cord after BMT+PLX protocol; format: in vivo, mouse; conditions: PLX5622 treated group
From the text: FIG. 21. Efficient microglia replacement in the spinal cord following our BMT+PLX protocol.
Many CNS diseases affect primarily the spinal cord. To evaluate whether our microglia replacement protocol is truly CNS-wide we characterized the spinal cords following a replacement as described above. Indeed, when using GFP-expressing donor cells we were able to identify a high and robust chimerism of GFP-positive, transplanted cell among the myeloid cells of the spinal cord (FIG. 21),

[2] = tested on: peripheral blood cell populations; assay: Effect of PLX5622 after HSCT on peripheral blood cell populations; format: in vivo; conditions: PLX5622 10 days after HSCT, D38
Method: FIG. 9. […] (A) Flow cytometry gating for analysis of donor chimerism in PB myeloid cells. (B) Myeloid chimerism in PB was analyzed by flow cytometry at the indicated time point (Horizontal bars represent median values. n=5-6/time point, ns: not significant, Student's t-test). (C) The effect of PLX5622 on PB myeloid cells was analyzed by flow cytometry. Flow cytometry gating for analysis of the indicated cell populations on D38. (D) Quantification of number of the indicated cell populations by flow cytometry (Mean±SEM, n=6/group, ns: not significant, Student's t-test). (E) Representative images of GFP+ and Iba-1+ cells, and DAPI in the cortex of recipient mice at the indicated time points. Scale bars:[…].
The following FACS antibodies were used in this study. […]
Approximately 50 ul of peripheral blood per mouse was collected from the facial vein into a 1.5 ml tubes containing 20ul of 0.5M EDTA. […] The resulting cells were analyzed by flow cytometry.

[3] = tested on: brain myeloid cells (CD45+CD11b+); assay: HSCT followed by PLX5622 treatment: donor (GFP+) myeloid chimerism in the brain by flow cytometry; format: in vivo, mouse
From the text: Microglia depletion after HSCT results in near complete replacement of microglia with bone marrow-derived cells throughout the entire brain. We next tested whether CSF1R inhibition after HSCT enhanced microglia replacement. We therefore performed conventional HSCT with GFP-labeled fresh bone marrow cells. After 28 days, we treated the experimental group with PLX5622 for 10 days and the control group received no drug (FIG. 2A). After another 10 days (7 weeks post transplant) we analyzed the brains and consistently found over 90% of all brain myeloid cells to be GFP^+ by flow cytometry (FIG. 2B, C). […] The transplanted CDMCs had homogeneously populated the entire brain (FIG. 2E). Importantly, this high chimerism was stable and CDMCs remained incorporated for at least 6 months after transplantation (FIG. 2C, 9E).
PLX5622 was provided by Plexxikon Inc. and incorporated to AIN-76A standard chow by Research Diets Inc. at 1200 mg/kg.
Unless otherwise noted, we used female mice at age of 8-12 weeks for both recipients and donors. WT mice were pre-treated with PLX5622 diet between day-21 and day −1 (21 days) and/or busulfan between day-6 and −2 day (5 days). For busulfan pre-treatment, mice received five intraperitoneal (IP) injections of busulfan (sigma, B1 170000) at 25 mg/kg body weight per day. On day 0, bone marrow cells (BMCs) were isolated from tibias and femurs of UBC-GFP mice. Isolated BMCs were resuspended in 1×red blood cell lysis buffer (e-bioscience, 00-4300-54) and incubated for 20 min at room temperature. BMCs were passed through 70 μm cell strainer, washed by applying 10 ml of ice cold PBS and then resuspended in fresh PBS. BMCs (5×10^6) in 200 ul PBS were injected into the retro-orbital sinus of the pre-conditioned recipients. On day 28, the recipient mice were treated with PLX5622 or control diet for 10 days. For tamoxifen injection, tamoxifen (sigma T5648) in corn oil (sigma, C8267) was provided by IP injection to the recipient mice at 200 mg/kg at the indicated time points after bone marrow transplantation.
Microglia cells were isolated from adult mouse brains as described (Shibuya et al., 2014). Anesthetized mice (100 mg/kg of ketamin and 10 mg/kg of xylazine, i.p.) were perfused through the left ventricle with ice-cold PBS without Ca^2+ and Mg^2+. Brains were removed and cut into two pieces along the midline. One hemisphere was immediately transferred to 4% paraformaldehyde for fixation. The other hemi-sphere was minced with a surgical knife, and then transferred to ice-cold HBSS without Ca^2+ and Mg^2+. Minced hemi-brains were centrifuged at 300×g for 2 min at room temperature and then enzymatically digested at 37° C. for 35 min by using Neural Tissue Dissociation Kit (Miltenyi Biotec, 130-092-628) according to the manufacturer's protocol. The cell suspension was passed through a 70 µm cell strainer and washed by applying 10 ml of HBSS with Ca^2+ and Mg^2+ to the strainer. The cell suspension was centrifuged at 300×g for 10 min at room temperature, re-suspended in 30% Percoll (GE Healthcare Lifesciences, 17089102), and then centrifuged at 700×g for 10 min at 4° C. The supernatant containing the myelin was removed and the pellet was washed with 10 ml of HBSS with Ca^2+ and Mg^2+. The resulting pellet was resuspended in FACS buffer and subjected to antibody staining for flow cytometry. Microglia/CDMCs were identified using anti-CD45 and anti-CD11b antibodies.
The following FACS antibodies were used in this study. CD11b (clone M1/70, BioLegend), CD45 (Clone 30-F11, BD biosciences), F4/80 (clone BM8, biolegend), CCR2 (clone SA203G11, biolegend), gp49A/B (clone H1.1), CD115 (CSF1R) (clone AFS98, biolegend), CD117 (c-kit) (clone 2B8, BD biosciences), sca-1 (clone D7, biolegend), cd127 (IL7Ra)(clone SB/199, biolegend), CD16/CD32 (FcR Ill/II) (clone 93, biolegend), CX3CR1 (clone K0124E1, biolegend), cd135 (Flk-2,)(clone A2F10) CD34 (clone561, biolegend), and Ly6C (clone RB6-8C5). […]

With `COc1ncc(F)cc1CNc1ccc(Cc2c[nH]c3ncc(C)cc23)c(F)n1` [PLX5622] the “myeloid cells GFP+ in total spinal cord by flow cytometry” value [1] was 90%, the “composition of peripheral blood cell populations” value [2] was “largely unaffected” and the “engraftment of CDMCs into the brain” value ([3]; PLX5622 between days 14 and 24 after HSCT, flow cytometry on D34) was “comparably robust and efficient engraftment”. The “fraction of GFP+ cells among brain myeloid cells” value ([3]; PLX5622 pre-treatment before HSCT (busulfan+PLX5622 group), 14 days post IV injection) was “only a marginal increase”, the “expression of microglia-specific marker TMEM119 in CDMCs” value ([3]; PLX5622 treatment following HSCT, cortex, d83) was “induced expression of the microglia-specific marker TMEM119 in CDMCs” and the “duration CDMCs remained incorporated (stable high chimerism)” value ([3]; after transplantation, PLX5622 10 days from D28) was “at least 6 months”. For the same compound, the “brain myeloid cells GFP+ by flow cytometry” value ([3]; busulfan HSCT, PLX5622 10 days from D28, analysed after another 10 days (7 weeks post transplant)) was “over 90%” and the “CDMCs (GFP+) and microglia (GFP-) numbers during PLX5622 treatment” value ([3]; flow cytometry during treatment after HSCT) was “both cell populations were diminished to similar degrees”.
